According to US10111854B2, “Synthesis and use of amine-containing flavonoids as potent anti-leishmanial agents” (The Hong Kong Polytechnic University, priority 2014, dated 2018):

How the values were obtained:
[1] = test system: L. amazonensis LV78 promastigotes; test: Anti-promastigote activity (MTS assay), L. amazonensis LV78; assay type: cell-based; details: 72 hours
Summary of the method: (§1)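 Promastigotes (1×10^5 per well) in Schneider's medium pH 6.9 with 10% FBS, exposed to serial compound concentrations for 72 h at 27 °C. Viability by MTS/PMS reduction over 4 h, OD 490 nm; IC50 derived.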

[2] = test system: L. major FV1 promastigotes; test: Anti-promastigote activity (MTS assay), L. major FV1; assay type: cell-based; details: 72 hours
Summary of the method: as §1

[3] = test system: L. donovani HU3 promastigotes; test: Anti-promastigote activity (MTS assay), L. donovani HU3; assay type: cell-based; details: 72 hours
Summary of the method: as §1

[4] = test system: L. donovani Ld39 promastigotes; test: Anti-promastigote activity (MTS assay), L. donovani Ld39; assay type: cell-based; details: 72 hours
Summary of the method: as §1

RAW264.7 cells [5] = test: Cytotoxicity, RAW264.7 macrophages; assay type: cell-based; details: murine macrophages RAW264.7
Description: Promastigotes of visceral L. donovani Ld39 and LdHU3, and cutaneous L. amazonensis LV78, L. braziliensis UA847 and L. major FV1 were employed in the study. All strains were cultured in Schneider's Drosophila Medium (Invitrogen), pH 6.9 supplemented with 10% (v/v) heat inactivated fetal bovine serum (Hyclone) with 4 mM glutamine (Sigma) and 25 μg/mL gentamicin solution (Invitrogen) at 27° C. for 4 days. RAW264.7 cells were cultured in supplemented DMEM media with 10% heat inactivated FBS and 100 U/mL penicillin and 100 μg/mL of streptomycin. They were maintained at 37° C. in a humidified atmosphere with 5% CO2. The cells were split constantly after a confluent monolayer has been formed. The cells were harvested by a cell scraper.
IC50 values of known antileishmanials and the amine-containing flavonoid monomers of the present invention to promastigotes (L. amazonensis LV78, L major FV1, L. donovani HU3, L. donovani 39), macrophages (Raw 264.7 and PEM) and mouse fibroblast (L929) were determined. The anti-promastigotes activities and cytotoxicity of the amine-containing flavonoid monomers of the invention are shown in Table 1.

[6] = test system: peritoneal elicited macrophages (PEM); test: Cytotoxicity, peritoneal elicited macrophages (PEM); assay type: cell-based, mouse; details: peritoneal elicited macrophages; read-out: Cytotoxicity IC50, PEM
[7] = test system: L. amazonensis LV78 amastigotes; test: Anti-amastigote activity in infected PEM, L. amazonensis LV78; assay type: cell-based; details: infected PEM, 3 days, Giemsa
Summary of the method: (§2)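 IC50 values derive from the number of amastigotes per 100 macrophages, counted on Giemsa-stained cover slips. Infected mouse PEM had been treated for 72 h at 37 °C.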

[8] = test system: L. braziliensis UA847 amastigotes; test: Anti-amastigote activity in infected PEM, L. braziliensis UA847; assay type: cell-based; details: 3 days, Giemsa, read-out: Anti-amastigote activity IC50, L. baziliensis UA847
Description: Mouse peritoneal elicited macrophages (PEM) were obtained as previously described (2). A round cover slip (12 mm in diameter) was placed into each well of 24-well culture plate. Mouse PEM were resuspended in supplemented DMEM media containing 10% heat inactivated FBS (v/v), 100 U/mL penicillin and 100 μg/mL streptomycin and seeded into each well at a cell density of 1×10^5 cells per 500 μL. Macrophages were allowed to attach overnight. Non-adherent cells were removed by gentle washing with un-supplemented DMEM media twice. Adherent macrophages were infected with late-log promastigotes at a parasite-to-macrophage ratio of 20:1 overnight at 37° C. with 5% CO2. Non-internalized promastigotes were removed by washing twice with un-supplemented DMEM media. Infected macrophages were further incubated in 500 μL of supplemented DMEM media in the presence or absence of FM for 72 hours at 37° C. After incubation, cover slips were stained with Giemsa and the percentage of macrophages infected and number of amastigotes per 100 macrophages was enumerated.
PEM cells were infected with late-log promastigotes (L. amazonensis LV78, L. braziliensis UA847, L. donovani HU3, L. donovani 39) for 24 hr at 37° C. Infected macrophages were then treated with various antileishmanials and incubated for 3 days at 37° C. After 3 days, the cover slips were stained with Giemsa. The number of amastigotes per 100 macrophages were determined and used to calculate IC50 values.

[9] = test system: L. donovani Ld39 amastigotes (SSG-resistant); test: Anti-amastigote activity in infected PEM, L. donovani Ld39; assay type: cell-based; details: infected PEM, 3 days, Giemsa; SSG-resistant
Summary of the method: as §2

RAW264.7 cells [10] = test: Reactive oxygen species (ROS) level, DCFDA, RAW264.7; assay type: cell-based, murine
Description: (§3) 50,000 RAW264.7 were seeded in each well of black 96-well plates overnight. Next day, RAW264.7 cells were pre-loaded with 10 μM dichlorofluorescein diacetate (DCFDA) (Abcam) for 1 hr at 37° C. with 5% CO2. A control of non-DCFDA stained cells was also included. The DCFDA-contained supplemented DMEM media was removed. The cells were re-suspended with 10 μM or 30 μM of respective tested compounds and positive control, tert-butyl hydroperoxide. In Leishmania, 1×10^7 promastigotes were also pre-loaded with 10 μM DCFDA at 27° C. for 1 hr. After removing the DCFDA-contained media, the promastigotes were seeded into black 96-well plate and incubated with 30 μM of respective compounds or positive control. The ROS level was determined at different periods of time including 2, 4, 6, 8, 20, 46 and 72 hr using microplate reader (excitation: 485 nm and emission: […]).
(§4) The ROS levels in both macrophage RAW264.7 and L. amazonensis promastigotes was measured by dichlorofluorescein diacetate (DCFDA) dye which is permeable to the cells. With oxidative stress, DCFDA would be oxidized to fluorescent DCF which is an indicator of intracellular ROS level. RAW cells or L. amazonensis promastigotes were pre-loaded with 10 μM of DCFDA for 1 hr, washed and exposed to 39, FM09, pentamidine and amphotericin B for different period of time (2, 4, 6, 8, 20, 46 and 72 hr). The fluorescence level was measured at the 520 nm using 485 nm as an excitation wavelength. 0.1% DMSO or 0.3% DMSO was used as a solvent control. The fluorescent value has been subtracted from non-DCFDA stained cells. The values were presented as mean±standard error of mean.

[11] = test system: L. amazonensis LV78 promastigotes; test: Reactive oxygen species (ROS) level, DCFDA, promastigotes; assay type: cell-based; details: 30 μM
Description: as §3, §4

C[C@@H]1[C@H](O)[C@@H](C)/C=C/C=C/C=C/C=C/C=C/C=C/C=C/[C@H](O[C@@H]2O[C@H](C)[C@@H](O)[C@H](N)[C@@H]2O)C[C@@H]2O[C@](O)(C[C@@H](O)C[C@@H](O)[C@H](O)CC[C@@H](O)C[C@@H](O)CC(=O)O[C@H]1C)C[C@H](O)[C@H]2C(=O)O [Amphotericin B]
IC50 [1]: 240 ± 30 nM
IC50 [2]: 290 ± 50 nM
IC50 [3]: 200 nM
IC50 [4]: 95 ± 20 nM
IC50 (RAW264.7 cells [5]): 12000 ± 2500 nM
IC50 [6]: 7400 ± 400 nM
IC50 [7]: 55 ± 29 nM
IC50 [8]: 49 ± 10 nM
IC50 [9]: 62 nM
RAW264.7 ROS Level, Relative fold (RF) (RAW264.7 cells [10]; 10 μM, 2 hr): 1.4 fold
RAW264.7 ROS Level, Relative fold (RF) (RAW264.7 cells [10]; 10 μM, 4 hr): 1.4 fold
RAW264.7 ROS Level, Relative fold (RF) (RAW264.7 cells [10]; 10 μM, 6 hr): 1.4 fold
RAW264.7 ROS Level, Relative fold (RF) (RAW264.7 cells [10]; 10 μM, 8 hr): 1.2 fold
RAW264.7 ROS Level, Relative fold (RF) (RAW264.7 cells [10]; 10 μM, 20 hr): 1.0 fold
ROS induction in macrophages (RAW264.7 cells [10]; 10 μM, RAW264.7): No ROS induction
RAW264.7 ROS Level, Relative fold (RF) (RAW264.7 cells [10]; 30 μM, 2 hr): 1.6 fold
RAW264.7 ROS Level, Relative fold (RF) (RAW264.7 cells [10]; 30 μM, 4 hr): 1.6 fold
RAW264.7 ROS Level, Relative fold (RF) (RAW264.7 cells [10]; 30 μM, 6 hr): 1.5 fold
RAW264.7 ROS Level, Relative fold (RF) (RAW264.7 cells [10]; 30 μM, 20 hr): 1.3 fold
RAW264.7 ROS Level, Relative fold (RF) (RAW264.7 cells [10]; 30 μM, 46 hr): 1.3 fold
L. amazon LV78 promastigote ROS Level, Relative fold (RF) ([11]; 2 hr): 4.5 fold
L. amazon LV78 promastigote ROS Level, Relative fold (RF) ([11]; 4 hr): 5.6 fold
L. amazon LV78 promastigote ROS Level, Relative fold (RF) ([11]; 6 hr): 7.5 fold
L. amazon LV78 promastigote ROS Level, Relative fold (RF) ([11]; 20 hr): 21 fold
L. amazon LV78 promastigote ROS Level, Relative fold (RF) ([11]; 46 hr): 27.1 fold
L. amazon LV78 promastigote ROS Level, Relative fold (RF) ([11]; 72 hr): 24.9 fold
